For data set [1], the species on record is Mus musculus. The data set is described as follows: Anticonvulsant activity in mice, measured by maximal electroshock seizure (MES) test. It is filed as functional. (In general: Protection in the maximal electroshock model is a classic sign of anticonvulsant action.)
The species entered for data set [2] is Mus musculus. The data set is described as follows: Neurological deficit in mouse measured by rotarod test. It is filed as functional. (In the rotarod test animals must keep their balance on a rotating rod.)
For data set [3], the system named is Mus musculus. The data set is described as follows: Anticonvulsant activity in mice, measured by subcutaneous pentylenetetrazole seizure (scMet) test. Conditions: sc. It is filed as functional.
Data set [4] is described as follows: Protective index (PI), anticonvulsant activity, ratio of TD50/ED50 value in maximal electroconvulsive shock seizure (MES) test. It is filed as ADME, organism-based. The note with it: mouse, in vivo.
Data set [5] can be described thus: Protective index (PI),anticonvulsant activity, ratio of TD50/ED50 value in scMet test. Conditions: mouse, in vivo. It is filed as ADME, organism-based.
Data set [6] in a line: Protective index (Pi) was measured as the ratio of TD50/ED50 value in MES test. It is filed as ADME.

As usually defined, the ED50 is the dose at which the effect has come halfway, by size or by number of responders. The low end stands for greater potency, the high end for weaker potency. As usually defined, the TD50 is the 50% point of the dose-response relation for the toxic effect studied. A lower TD50 goes with greater toxicity.

Turning to `FC(F)(F)c1ccc(-n2nncc2-c2cccnc2)cc1`, the ED50 in the data set listed under Mus musculus [1] worked out at 92.3 mg/kg; with Mus musculus [3] it was 90.5 mg/kg. The compound also had a TD50 in the data set filed under Mus musculus [2] of 379 mg/kg. Further, the selectivity ratio in data set [4] was 4.1; in data set [5], 4.2.
For `Fc1ccc(-n2nncc2-c2ccncc2)cc1`, the ED50 in the data set filed under Mus musculus [1] was 91.6 mg/kg; with Mus musculus [3], 119 mg/kg. Moreover, in the data set listed under Mus musculus [2], the TD50 is 181 mg/kg. Moreover, the results for the selectivity ratio in data set [4] and in data set [5] were 2 and 1.5, respectively.
For the compound `CCCC(CCC)C(=O)O` [VALPROIC ACID], the ED50 amounted to 272 mg/kg in the data set listed under Mus musculus [1] and 149 mg/kg with Mus musculus [3].
As for `FC(F)(F)c1cccc(-n2nncc2-c2ccncc2)c1`, the figures for the ED50 in the data set filed under Mus musculus [1] and in the data set on Mus musculus [3] were 68.2 mg/kg and 44.7 mg/kg, respectively. In addition, the TD50 in the data set listed under Mus musculus [2] is 68 mg/kg. Further, the selectivity ratio in data set [4] was found to be 0.99; in data set [5], 1.52.
For the compound `Fc1ccc(-n2nncc2-c2cccnc2)cc1`, the 50% effective dose (ED50) is 74.6 mg/kg in the data set filed under Mus musculus [1] and 47.9 mg/kg with Mus musculus [3]. This compound registered a TD50 in the data set listed under Mus musculus [2] of 168 mg/kg. Further, the values for the selectivity ratio in data set [4] and in data set [5] were 2.5 and 3.5, respectively.
`CCC1(C)CC(=O)NC1=O` (configuration not stated) [ETHOSUXIMIDE] registered a TD50 in the data set listed under Mus musculus [2] of 441 mg/kg. The same compound yielded an ED50 in the data set on Mus musculus [3] of 130 mg/kg.
With `c1ccc(N2N=NCC2c2ccncc2)cc1` (configuration not stated), the figures for the ED50 in the data set filed under Mus musculus [1] and in the data set on Mus musculus [3] were 165 mg/kg and 107 mg/kg, respectively. This compound also displayed a TD50 in the data set filed under Mus musculus [2] of 590 mg/kg. Further, the values for the selectivity ratio in data set [4] and in data set [5] were 3.6 and 5.6, respectively.
`COc1ccc(-n2nncc2-c2ccncc2)cc1` came in with an ED50 in the data set listed under Mus musculus [1] of 311 mg/kg. Also, the TD50 in the data set filed under Mus musculus [2] worked out at 545 mg/kg. Besides, the selectivity ratio in data set [6] turned out to be 1.75.
For the compound `Clc1ccc(-n2nncc2-c2cccnc2)cc1`, the ED50 in the data set filed under Mus musculus [1] came out at 65.8 mg/kg; in the data set on Mus musculus [3], 26.9 mg/kg. The same compound yielded a TD50 in the data set listed under Mus musculus [2] of 245 mg/kg. Also, the selectivity ratio in data set [4] is 3.7; in data set [5], 9.1.
`Clc1ccc(N2N=NCC2c2ccncc2)cc1` (configuration not stated): the ED50 in the data set filed under Mus musculus [1] was 257 mg/kg. The compound further had a TD50 in the data set listed under Mus musculus [2] of 1130 mg/kg. Besides, the selectivity ratio in data set [4] was 4.4; in data set [5], 26.
As for `FC(F)(F)c1cccc(N2N=NCC2c2ccncc2)c1` (configuration not stated), the ED50 in the data set filed under Mus musculus [1] stood at 52.1 mg/kg; with Mus musculus [3] it was 51 mg/kg. The compound also came in with a TD50 in the data set filed under Mus musculus [2] of 137 mg/kg. The selectivity ratio turned out to be 2.63 in data set [4] and 2.69 in data set [5].
The like results for `c1ccc(-n2nncc2-c2cccnc2)cc1` were, in that order, 76.4 mg/kg, 39.7 mg/kg, 133 mg/kg, 1.7 and 3.3.
The like results for `FC(F)(F)c1ccc(N2N=NCC2c2ccncc2)cc1` (configuration not stated) were, in that order, 689 mg/kg, 421 mg/kg, > 2000 mg/kg, > 2.9 and > 4.8.
With `Brc1ccc(-n2nncc2-c2cccnc2)cc1`, the ED50 came to 87.2 mg/kg in the data set filed under Mus musculus [1] and 40.6 mg/kg in the data set on Mus musculus [3]. For the same compound, the TD50 in the data set filed under Mus musculus [2] was found to be 496 mg/kg. Also, the figures for the selectivity ratio in data set [4] and in data set [5] were 5.7 and 12.2, respectively.
The like results for `Fc1ccc(N2N=NCC2c2ccncc2)cc1` (configuration not stated) were, in that order, 239 mg/kg, 203 mg/kg, 586 mg/kg, 2.5 and 2.9.
The like results for `Clc1cccc(-n2nncc2-c2ccncc2)c1` were, in that order, 38 mg/kg, 29.2 mg/kg, 68.7 mg/kg, 1.8 and 2.4.
In the case of `c1ccc(-n2nncc2-c2ccccn2)cc1`, the ED50 in the data set listed under Mus musculus [1] stood at 41.1 mg/kg; in the data set on Mus musculus [3], 25.6 mg/kg. The compound further registered a TD50 in the data set filed under Mus musculus [2] of 87.9 mg/kg. The selectivity ratio came to 2.1 in data set [4] and 3.4 in data set [5].
For the compound `Fc1ccc(-n2nncc2-c2ccccn2)cc1F`, the figures for the ED50 in the data set listed under Mus musculus [1] and with Mus musculus [3] were 62.5 mg/kg and 123 mg/kg, respectively. In the data set filed under Mus musculus [2], this compound yielded a TD50 of 123 mg/kg. Moreover, the selectivity ratio in data set [4] turned out to be 3.1; in data set [5], 1.6.
As to `Brc1ccc(-n2nncc2-c2ccccn2)cc1`, the ED50 is 68 mg/kg in the data set filed under Mus musculus [1] and 88.6 mg/kg in the data set on Mus musculus [3]. This compound also displayed a TD50 in the data set listed under Mus musculus [2] of 265 mg/kg. Moreover, the figures for the selectivity ratio in data set [4] and in data set [5] were 3.9 and 3, respectively.
The like results for `Clc1ccc(-n2nncc2-c2ccccn2)cc1` were, in that order, 95.2 mg/kg, 50.4 mg/kg, 234 mg/kg, 2.5 and 4.6.
Compound `CCC1(c2ccccc2)C(=O)NC(=O)NC1=O` [PHENOBARBITAL] gave a TD50 in the data set listed under Mus musculus [2] of 69 mg/kg.
Regarding `Clc1ccc(-n2nncc2-c2ccccc2)cc1`, the figures for the ED50 in the data set listed under Mus musculus [1] and in the data set on Mus musculus [3] were 233 mg/kg and 95.2 mg/kg, respectively. In addition, the TD50 in the data set filed under Mus musculus [2] worked out at 466 mg/kg. Moreover, the selectivity ratio in data set [4] stood at 2; in data set [5] it was 4.9.
Consider `c1ccc(-n2nncc2-c2ccncc2)cc1`, for which the ED50 in the data set listed under Mus musculus [1] was determined as 78.8 mg/kg; in the data set on Mus musculus [3], 73.7 mg/kg. The compound further came in with a TD50 in the data set filed under Mus musculus [2] of 157 mg/kg. For the same compound, the selectivity ratio in data set [4] is 2; in data set [5], 2.1.
